Test results: publication PMC11944621, “Synthesis, Molecular Simulation, DFT, and Kinetic Study of Imidazotriazole-Based Thiazolidinone as Dual Inhibitor of Acetylcholinesterase and Butyrylcholinesterase Enzymes” (Pharmaceuticals, 2025)
Read-outs that look alike come from different tables or passages of the source.

Legend:
AChE [1] = target: T1, AChE (Homo sapiens, UniProt P22303); test: biochemical; details: in vitro, triplicate; read-out: AchE IC50 ± SEM
Procedure: (§1) With some modifications, inhibitory potential against AChE and BuChE was investigated according to the reported protocol. […] Added test compound (well-1) with volume of 10 µL and a concentration of 0.5 mM followed by the addition of an enzyme of 10 µL (0.005 unit well-1). Pre-incubation of substances at 37 °C for 10 min was achieved. Reaction was started by adding 10 µL of 0.5 mM well-1 substrate (acetylthiocholine iodide/ butyrylthiochloine chloride) followed by addition of 10 µL DTNB (0.5 mM well-1). […] All experiments were performed with their respective controls in triplicate. […] The % inhibition was computed using the following equation:Inhibition (%) = Control − Test/control × 100 […]
(§2) S.2 AChE and BuChE assay protocols
(§3) With a little bit modification, inhibitory potential against AChE and BuChE was investigated according to the reported protocol. The total volume of the reaction mixture was kept at 100 µL, […]
(§4) compound (well-1) with volume of 10µL and a concentration of 0.5mM followed by the addition of an enzyme of 10 µL (0.005 unit well-1). Pre-incubation of substances at 37 °C for 10 min was achieved. Reaction was started by addition of 10µL of 0.5mM well-1 substrate (acetylthiocholine iodide/ butyrylthiochloine chloride) followed by addition of 10µL DTNB (0.5mM well-1).
(§5) Synergy HT, BioTek, US. All experiments were done with their respective controls in triplicate.
(§6) The % inhibition was computed using the following equation
(§7) Inhibition (%) = Control – Test/control x 100
(§8) Control EZ-Fit Enzyme kinetics software (Perrella Scientific Inc. Amherst, USA) was used for the calculation of IC50 values. […]

BChE [2] = target: T2, BChE (Homo sapiens, UniProt P06276); test: biochemical; details: in vitro, triplicate; read-out: BChE IC50 ± SEM
Procedure: as §1, §2, §3, §4, §5, §6, §7, §8

enzyme = test: Enzyme kinetics (mode of inhibition); format: biochemical
Excerpt: This is an in vitro approach, which measures the initial inhibition rate with the change in the inhibitor concentration.

AChE [3] = target: T1, AChE; details: previously reported thiazolidinone analog; read-out: IC50 against AChE; cited from earlier work
BChE [4] = target: T2, BChE; details: cited from earlier work

T2 sequence (P06276 29-602): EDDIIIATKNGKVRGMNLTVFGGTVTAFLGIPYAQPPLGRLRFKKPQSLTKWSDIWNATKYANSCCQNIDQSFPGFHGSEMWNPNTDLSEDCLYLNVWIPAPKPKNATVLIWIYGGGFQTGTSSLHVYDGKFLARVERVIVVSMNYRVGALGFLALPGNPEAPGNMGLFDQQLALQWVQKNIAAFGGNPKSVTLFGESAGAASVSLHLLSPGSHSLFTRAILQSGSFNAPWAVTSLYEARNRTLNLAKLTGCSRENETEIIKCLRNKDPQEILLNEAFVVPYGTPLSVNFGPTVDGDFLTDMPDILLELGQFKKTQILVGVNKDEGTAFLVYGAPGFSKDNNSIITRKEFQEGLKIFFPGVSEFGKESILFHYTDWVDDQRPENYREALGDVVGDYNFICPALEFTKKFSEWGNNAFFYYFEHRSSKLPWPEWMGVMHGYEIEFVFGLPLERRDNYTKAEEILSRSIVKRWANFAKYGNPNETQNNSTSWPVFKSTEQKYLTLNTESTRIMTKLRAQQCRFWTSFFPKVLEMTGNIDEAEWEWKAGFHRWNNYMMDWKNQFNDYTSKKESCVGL
T1 sequence (P22303 32-614): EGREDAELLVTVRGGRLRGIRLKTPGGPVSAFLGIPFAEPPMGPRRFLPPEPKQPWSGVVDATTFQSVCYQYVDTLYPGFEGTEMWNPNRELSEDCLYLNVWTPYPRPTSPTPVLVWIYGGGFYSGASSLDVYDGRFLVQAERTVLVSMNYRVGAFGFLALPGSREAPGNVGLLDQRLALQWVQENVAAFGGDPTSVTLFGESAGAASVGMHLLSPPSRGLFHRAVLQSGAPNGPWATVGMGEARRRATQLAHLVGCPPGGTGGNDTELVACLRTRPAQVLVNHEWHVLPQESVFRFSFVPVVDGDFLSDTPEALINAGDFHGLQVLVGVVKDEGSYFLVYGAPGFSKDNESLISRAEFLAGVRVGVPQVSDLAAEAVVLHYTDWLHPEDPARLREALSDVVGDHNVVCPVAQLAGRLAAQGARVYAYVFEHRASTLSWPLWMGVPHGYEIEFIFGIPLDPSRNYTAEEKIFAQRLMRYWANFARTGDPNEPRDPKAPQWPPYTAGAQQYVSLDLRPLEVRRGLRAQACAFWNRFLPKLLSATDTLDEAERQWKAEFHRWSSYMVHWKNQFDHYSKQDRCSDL

COc1cc(-c2nnc3[nH]ccn23)ccc1N1C(=O)CSC1c1ccc(F)cc1O (stereo not shown) [Analog 11]
IC50 (AChE [1]): 8.3 ± 0.2 µM
IC50 (BChE [2]): 8.6 ± 0.3 µM

COc1cc(-c2nnc3[nH]ccn23)ccc1N1C(=O)CSC1c1ccc(C(F)(F)F)cc1 (stereo not shown) [Analog 10]
Mode of inhibition (enzyme kinetics) (enzyme): competitive inhibitor
IC50 (AChE [1]): 6.7 ± 0.2 µM
IC50 (BChE [2]): 7.1 ± 0.1 µM

COc1cc(-c2nnc3[nH]ccn23)ccc1N1C(=O)CSC1c1ccc(F)cc1F (stereo not shown) [Analog 3]
IC50 (AChE [1]): 8.1 ± 0.4 µM
IC50 (BChE [2]): 8.5 ± 0.3 µM

O=C1/C(=C\c2ccc(N3CCCC3)cc2)S/C(=N/N2CCOCC2)N1c1ccccc1 [(E)-2-(morpholinoimino)-3-phenyl-5-((E)-4-(pyrrolidin-1-yl)benzylidene)thiazolidin-4-one]
IC50 (AChE [3]): 17.4 ± 0.22 µM
IC50 (BChE [4]; previously reported thiazolidinone analog, read-out: IC50 against BChE): 24.4 ± 0.51 µM

Cc1ccc(-c2cn(Cc3ccc4ccccc4c3)nn2)cc1C(=O)NCCN1CCOCC1 [2-methyl-N-(2-morpholinoethyl)-5-(1-(naphthalen-2-ylmethyl)-1H-1,2,3-triazol-4-yl)benzamide]
IC50 (BChE [4]; read-out: IC50 for BChE, previously reported triazole analog): 90.76 ± 0.21 µM
